Experimental data taken from patent US9850281B2, “Cladosporium peptides” (Circassia Limited, priority 2012, dated 2017).
Where no end group is shown, it is not given here. [ ]: non-standard residue; d: D form. Nle = CCCC[C@H](N)C(=O)O

How the values were obtained:
[1] = test system: Peripheral blood mononuclear cells (PBMCs); experiment: Cytokine release assay (multiplex bead assay IL-10, IL-13, IFN-g) on PBMCs of mould allergic subjects; type: cell-based, human; settings: 50 mould allergic subjects; for cytokine response in the population (in words): summary of Tables 8-10; for % responders: cytokine release greater than 50 pg/ml in one or more of IL-13, IL-10 and IFN-g, polypeptide 100 μg/ml, 5 days
Method: Polypeptides for use in this assay were manufactured at small scale (approximately 10 mg batch size, non-GMP). […] Polypeptides were added to wells in a volume of 100 μl containing polypeptides at a concentration of 200 μg/ml, such that subsequent addition of 100 μl of cells would create a final assay concentration of 100 μg/ml.
Peripheral blood mononuclear cells (PBMCs) were isolated from heparinised blood by Ficoll density gradient centrifugation. A 100 μl aliquot of a 5×10^6 cell/ml PBMC suspension was then added to each well and the plates placed in a humidified 5% CO2 incubator at 37° C. for 5 days. Following stimulation, culture supernatants (100 μl) were harvested for testing by multiplex bead assay.
Multiplex cytokine bead assays (IL-10, IL-13, Interferon gamma (IFN-g)) were performed on thawed culture supernatants according to the manufacturer's instructions. Single measurements were performed for each culture supernatant sample. After completion of the multiplex assay, individual cytokine levels were determined by interpolation from the standard curve generated in the assay. A positive result was taken as a cytokine release of greater than 50 pg/ml in one or more of the IL-13, IL-10 and IFN-g assays. The number of responders out of 50 mould allergic subjects tested was calculated for each polypeptide for the three cytokines.

[2] = test system: Peripheral blood mononuclear cells (PBMCs); experiment: as above; type: cell-based, human; settings: 50 mould allergic subjects, polypeptide 100 μg/ml, 5 days

Substance | cytokine response in the population (in words) [1] | % responders [1] [%] | % responders (IFN-g release greater than 100 pg/ml) [2] [%]
AEVYQKLKALAKKTYGQ [Alt13A] | top performing | 86 | –
AEVYQKLKSLTKK [Cla16] | showed responses in the population | 36 | 16
ANYTQTKTVSIRL [Cla29] | showed responses in the population | 48 | 28
GGYKAAVRPT-Nle-LE (GGYKAAVRPT[Nle]LE) [Cla35A] | increased response compared to the polypeptide having the sequence of Cla35 | 48 | –
GGYKAAVRPTMLE [Cla35] | showed responses in the population | 34 | 28
GHHFKERGTGSLVIT [Cla26] | showed responses in the population | 44 | 28
GLHFRERKTGSLVIT [Alt21] | – | 38 | –
GWGV-Nle-VSHRSGET (GWGV[Nle]VSHRSGET) [Alt14A] | top performing | 56 | –
GWGVMVSHRSGET [Alt14] | top performing | 44 | –
GYTGKIKIA-Nle-DVASSE (GYTGKIKIA[Nle]DVASSE) [Alt15A] | top performing | 42 | –
GYTGKIKIAMDVASSE [Alt15] | top performing | 56 | –
KLWHS-Nle-IP-Nle-GRDAK (KLWHS[Nle]IP[Nle]GRDAK) [Alt24A] | – | 40 | –
KLWHSMIP-Nle-GRDAK (KLWHSMIP[Nle]GRDAK) [Alt24C] | – | 36 | –
KLWHSMIPMGRDAK [Alt24] | – | 34 | –
LAITYNSRAEGAEK [Alt20] | – | 38 | –
NEWRDFARVNSISP [Alt23] | – | 40 | –
VAITYASRAQGAEK [Cla25A] | showed responses in the population | 44 | 22
WSWKIGPAIATGNT [Alt28] | top performing | 52 | –
